Here are results for 14 compounds from patent US7994185B2, “Benzene sulfonamide thiazole and oxazole compounds” (Glaxo Smith Kline LLC, priority 2008, dated 2011).

Read-outs that look alike come from different tables or passages of the source. Some results are limits rather than exact numbers.

The target of assay [1] is T1, BRAFV600E full-length (amino acids 2-766) (Homo sapiens, UniProt P15056, V600E).
T1 construct: His6-tagged BRAFV600E full-length (amino acids 2-766); His6; made in house; host or cells: baculovirus expression system (insect cells)
The assay can be described thus: B-Raf Accelerated MEK ATPase assay (BRAMA). It is filed as biochemical. The method in brief: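 Coupled-enzyme readout: ADP generated by MEK-mediated ATP hydrolysis, uncoupled from ERK phosphorylation, is linked to NADH oxidation through pyruvate kinase and lactate dehydrogenase.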

In assay [2] the test system is Human colon tumor cells (Colo205). The assay can be described thus: Cell growth inhibition assay (CellTiter-Glo), Colo205. Type of assay: cell-based. An outline of the steps: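 Luminescent ATP read-out (CellTiter-Glo) served as a proxy for cell number; percent growth inhibition was calculated against DMSO vehicle wells. Cells were treated for 3 days at 37 °C with serially diluted compound, 0.2% DMSO final.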
Background: Cellular ATP, detected with luciferase, serves as a proxy for viable cell number.

Assay [3] relates to Human melanoma cancer cells (SK-MEL-28). The assay can be described thus: Cell growth inhibition assay (CellTiter-Glo), SK-MEL-28. Type of assay: cell-based.
Setting [4] is: B-Raf Activity, Table 1a, highest pIC50 for the one or more runs, categorized.
Setting [5] is: B-Raf pIC50, Table 1b, later runs, average pIC50 for the one or more runs, categorized.
The mark [6] stands for this setting: COLO 205, 72 h, Table 2a, 3 days incubation, read-out: Activity in Colo205 Tumor Cells.
Setting [7] is: COLO 205, Table 2b, later runs, average for the one or more runs, categorized, read-out: IC50 for Colo205.
Where [8] appears, read: SK-MEL-28, 72 h, Table 3a, 3 days incubation, read-out: Activity in SK-MEL-28 Tumor Cells.
[9] abbreviates: SK-MEL-28, Table 3b, later runs, average for the one or more runs, categorized, read-out: IC50 for SK-MEL-28.

T1 sequence (P15056 2-766 V600E): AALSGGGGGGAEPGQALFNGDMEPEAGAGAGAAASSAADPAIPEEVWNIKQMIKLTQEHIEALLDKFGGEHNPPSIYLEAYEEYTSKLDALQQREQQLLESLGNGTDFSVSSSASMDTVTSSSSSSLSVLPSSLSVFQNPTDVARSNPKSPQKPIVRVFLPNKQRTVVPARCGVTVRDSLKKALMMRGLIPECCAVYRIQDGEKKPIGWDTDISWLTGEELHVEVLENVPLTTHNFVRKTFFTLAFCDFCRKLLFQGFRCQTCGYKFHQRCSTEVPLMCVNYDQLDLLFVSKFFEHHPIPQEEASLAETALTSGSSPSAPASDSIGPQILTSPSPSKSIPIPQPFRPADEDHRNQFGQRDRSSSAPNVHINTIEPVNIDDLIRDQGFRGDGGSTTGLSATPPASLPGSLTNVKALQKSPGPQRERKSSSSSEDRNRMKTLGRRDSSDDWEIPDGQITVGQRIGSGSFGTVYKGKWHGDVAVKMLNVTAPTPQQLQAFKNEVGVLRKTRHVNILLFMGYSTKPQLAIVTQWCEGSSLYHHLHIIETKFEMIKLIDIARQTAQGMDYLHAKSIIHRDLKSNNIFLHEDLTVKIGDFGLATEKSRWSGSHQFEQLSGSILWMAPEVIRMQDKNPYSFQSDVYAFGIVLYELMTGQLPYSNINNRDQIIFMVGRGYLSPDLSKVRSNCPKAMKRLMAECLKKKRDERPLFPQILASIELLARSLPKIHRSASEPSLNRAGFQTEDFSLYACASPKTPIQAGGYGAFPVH

On to `Nc1nccc(-c2sc(N3CCOCC3)nc2-c2cccc(NS(=O)(=O)N3CCCCC3)c2F)n1` [Example 49, N-{3-[5-(2-Amino-4-pyrimidinyl)-2-(4-morpholinyl)-1,3-thiazol-4-yl]-2-fluorophenyl}-1-piperidinesulfonamide], for which the IC50 in assay [1] (setting [4]) lay in the range of 100 to 1000 nM; in assay [1] (setting [5]), 31.6 to 1000 nM; in assay [2] (setting [6]) it was 100 to 1000 nM; in assay [2] (setting [7]) it was 100 to 1000 nM; in assay [3] (setting [8]), 100 to 1000 nM; in assay [3] (setting [9]), 100 to 1000 nM.
As to `Nc1nccc(-c2sc(N3CCOCC3)nc2-c2cccc(NS(=O)(=O)N3CCOCC3)c2F)n1` [Example 50, N-{3-[5-(2-Amino-4-pyrimidinyl)-2-(4-morpholinyl)-1,3-thiazol-4-yl]-2-fluorophenyl}-4-morpholinesulfonamide], the IC50 was 100 to 1000 nM in assay [1] (setting [4]); 31.6 to 1000 nM in assay [1] (setting [5]); greater than 1000 nM in assay [2] (setting [6]); 1000 to 10000 nM in assay [2] (setting [7]); greater than 1000 nM in assay [3] (setting [8]); 1000 to 10000 nM in assay [3] (setting [9]).
As for `Nc1nccc(-c2sc(N3CCOCC3)nc2-c2cccc(NS(=O)(=O)C3CC3)c2F)n1` [Example 51, N-{3-[5-(2-Amino-4-pyrimidinyl)-2-(4-morpholinyl)-1,3-thiazol-4-yl]-2-fluorophenyl}cyclopropanesulfonamide], the IC50 in assay [1] is greater than 1000 nM; in assay [2] (setting [6]), greater than 1000 nM; in assay [2] (setting [7]), 1000 to 10000 nM; in assay [3] (setting [8]) it was greater than 1000 nM; in assay [3] (setting [9]), 1000 to 10000 nM.
`CC(C)c1nc(-c2cccc(NS(=O)(=O)C3CC3)c2)c(-c2ccnc(NCCS(C)(=O)=O)n2)s1` [Example 52, N-{3-[2-(1-Methylethyl)-5-(2-{[2-(methylsulfonyl)ethyl]amino}-4-pyrimidinyl)-1,3-thiazol-4-yl]phenyl}cyclopropanesulfonamide]: the IC50 in assay [1] (setting [4]) lay in the range of 100 to 1000 nM; in assay [1] (setting [5]), 31.6 to 1000 nM; in assay [2] (setting [6]), 100 to 1000 nM; in assay [2] (setting [7]) it was 100 to 1000 nM; in assay [3] (setting [8]), 100 to 1000 nM; in assay [3] (setting [9]), 100 to 1000 nM.
Regarding `Cc1ccc(F)cc1S(=O)(=O)Nc1cccc(-c2nc(C(C)(C)C)sc2-c2ccnc(N)n2)c1F` [Example 53, N-{3-[5-(2-Amino-4-pyrimidinyl)-2-(1,1-dimethylethyl)-1,3-thiazol-4-yl]-2-fluorophenyl}-5-fluoro-2-methylbenzenesulfonamide], the IC50 in assay [1] (setting [4]) is less than 100 nM; in assay [1] (Table 1b, later runs, average pIC50 for the one or more runs, categorized, read-out: B-Raf pIC50 (converted)) it was 3.16 to 31.6 nM; in assay [2] (setting [6]), less than 100 nM; in assay [2] (setting [7]), less than 100 nM; in assay [3] (setting [8]) it was less than 100 nM; in assay [3] (setting [9]) it was less than 100 nM.
As to `CC(C)(C)c1nc(-c2cccc(NS(=O)(=O)c3ccccc3F)c2F)c(-c2ccnc(N)n2)s1` [Example 54, N-{3-[5-(2-Amino-4-pyrimidinyl)-2-(1,1-dimethylethyl)-1,3-thiazol-4-yl]-2-fluorophenyl}-2-fluorobenzenesulfonamide], the IC50 is less than 100 nM in assay [1] (setting [4]); no more than 3.16 nM in assay [1] (setting [5]); less than 100 nM in assay [2] (setting [6]); less than 100 nM in assay [2] (setting [7]); less than 100 nM in assay [3] (setting [8]); less than 100 nM in assay [3] (setting [9]).
As to `CC(C)c1nc(-c2ccc(F)c(NS(=O)(=O)C3CC3)c2)c(-c2ccnc(NCCS(C)(=O)=O)n2)s1` [Example 55, N-{2-fluoro-5-[2-(1-methylethyl)-5-(2-{[2-(methylsulfonyl)ethyl]amino}-4-pyrimidinyl)-1,3-thiazol-4-yl]phenyl}cyclopropanesulfonamide], the IC50 was 100 to 1000 nM in assay [1] (setting [4]); 31.6 to 1000 nM in assay [1] (setting [5]); 100 to 1000 nM in assay [2] (setting [6]); 100 to 1000 nM in assay [2] (setting [7]); greater than 1000 nM in assay [3] (setting [8]); 1000 to 10000 nM in assay [3] (setting [9]).
Turning to `Nc1nccc(-c2sc(N3CCOCC3)nc2-c2cccc(NS(=O)(=O)c3cc(F)ccc3F)c2F)n1` [Example 56, N-{3-[5-(2-Amino-4-pyrimidinyl)-2-(4-morpholinyl)-1,3-thiazol-4-yl]-2-fluorophenyl}-2,5-difluorobenzenesulfonamide], the IC50 was less than 100 nM in assay [1] (setting [4]); no more than 3.16 nM in assay [1] (setting [5]); less than 100 nM in assay [2] (setting [6]); less than 100 nM in assay [2] (setting [7]); less than 100 nM in assay [3] (setting [8]); less than 100 nM in assay [3] (setting [9]).
For the compound `CC(C)c1nc(-c2cccc(NS(=O)(=O)c3c(F)cccc3F)c2F)c(-c2ccnc(N)n2)s1` [Example 60, N-{3-[5-(2-Amino-4-pyrimidinyl)-2-(1-methylethyl)-1,3-thiazol-4-yl]-2-fluorophenyl}-2,6-difluorobenzenesulfonamide], the IC50 is less than 100 nM in assay [1] (setting [4]); no more than 3.16 nM in assay [1] (setting [5]); less than 100 nM in assay [2] (setting [6]); less than 100 nM in assay [2] (setting [7]); less than 100 nM in assay [3] (setting [8]); less than 100 nM in assay [3] (setting [9]).
For the compound `Nc1nccc(-c2sc(N3CCOCC3)nc2-c2cccc(NS(=O)(=O)c3cccnc3)c2F)n1` [Example 61, N-{3-[5-(2-Amino-4-pyrimidinyl)-2-(4-morpholinyl)-1,3-thiazol-4-yl]-2-fluorophenyl}-3-pyridinesulfonamide], the IC50 is less than 100 nM in assay [1] (setting [4]); no more than 3.16 nM in assay [1] (setting [5]); 100 to 1000 nM in assay [2] (setting [6]); 100 to 1000 nM in assay [2] (setting [7]); 100 to 1000 nM in assay [3] (setting [8]); 100 to 1000 nM in assay [3] (setting [9]).
Regarding `Nc1nccc(-c2sc(N3CCOCC3)nc2-c2cccc(NS(=O)(=O)c3ccco3)c2F)n1` [Example 62, N-{3-[5-(2-Amino-4-pyrimidinyl)-2-(4-morpholinyl)-1,3-thiazol-4-yl]-2-fluorophenyl}-2-furansulfonamide], the IC50 in assay [1] (setting [4]) was less than 100 nM; in assay [1] (setting [5]), no more than 3.16 nM; in assay [2] (setting [6]), 100 to 1000 nM; in assay [2] (setting [7]), 100 to 1000 nM; in assay [3] (setting [8]) it was 100 to 1000 nM; in assay [3] (setting [9]), 100 to 1000 nM.
As to `CC(C)(C)c1nc(-c2cccc(NS(=O)(=O)C3CCCCC3)c2F)c(-c2ccnc(N)n2)s1` [Example 63, N-{3-[5-(2-Amino-4-pyrimidinyl)-2-(1,1-dimethylethyl)-1,3-thiazol-4-yl]-2-fluorophenyl}cyclohexanesulfonamide], the IC50 in assay [1] (setting [4]) fell in the range of 100 to 1000 nM; in assay [1] (setting [5]) it was 31.6 to 1000 nM; in assay [2] (setting [6]), 100 to 1000 nM; in assay [2] (setting [7]) it was 100 to 1000 nM; in assay [3] (setting [8]) it was 100 to 1000 nM; in assay [3] (setting [9]) it was 100 to 1000 nM.
For the compound `CC(C)CNc1nccc(-c2sc(C3CCOCC3)nc2-c2cccc(NS(=O)(=O)c3cc(F)ccc3F)c2F)n1` [Example 67, 2,5-Difluoro-N-{2-fluoro-3-[5-{2-[(2-methylpropyl)amino]-4-pyrimidinyl}-2-(tetrahydro-2H-pyran-4-yl)-1,3-thiazol-4-yl]phenyl}benzenesulfonamide], the IC50 in assay [1] (setting [4]) was less than 100 nM; in assay [1] (setting [5]), no more than 3.16 nM; in assay [2] (setting [6]), less than 100 nM; in assay [2] (setting [7]) it was less than 100 nM; in assay [3] (setting [8]), less than 100 nM; in assay [3] (setting [9]) it was less than 100 nM.
As to `Nc1nccc(-c2sc(C3CCOCC3)nc2-c2ccc(F)c(NS(=O)(=O)c3cc(F)ccc3F)c2)n1` [Example 68, N-{5-[5-(2-Amino-4-pyrimidinyl)-2-(tetrahydro-2H-pyran-4-yl)-1,3-thiazol-4-yl]-2-fluorophenyl}-2,5-difluorobenzenesulfonamide], the IC50 is 100 to 1000 nM in assay [1] (setting [4]); 31.6 to 1000 nM in assay [1] (setting [5]); greater than 1000 nM in assay [2] (setting [6]); 1000 to 10000 nM in assay [2] (setting [7]); greater than 1000 nM in assay [3] (setting [8]); 1000 to 10000 nM in assay [3] (setting [9]).
